The nature of the data set: Human HepG2 cell viability assay in 384 well format. To be noted: HepG2 cells, read-out: Inhibition. The data set is classed as toxicity, cell-based. The arrangement: dose 125 nL, time 70.5 hour; concentration not given beside the values.
Take `Cc1n[nH]c(C)c1CC(=O)NCc1ccccc1Cl`: the cytotoxicity at 70.5 h worked out at 1.58%. Consider `COCCCNS(=O)(=O)c1ccc(N2CCCCS2(=O)=O)cc1`, for which the cytotoxicity at 70.5 h was -9.62%.

For `COc1ccc(C2=NOC(C(=O)N3CCCc4ccccc43)C2)cc1` (configuration not stated), the cytotoxicity at 70.5 h is 8.49%. Turning to `Cc1ccc(NC(=O)Nc2c[nH]c(=O)[nH]c2=O)c(Cl)c1`, the cytotoxicity at 70.5 h was -8.13%. In the case of `CCOC(=O)CNC(=O)NCc1cc(C)n(-c2ccc(OC)cc2)c1C` it was -22.5%; in that of `COc1ccc(Cl)cc1Nc1nc(N)c(C(C)=O)s1`, -19.7%; in that of `COc1ccc(Nc2nc(N)c(C(C)=O)s2)cc1OC`, -12.7%. Regarding `CCCC(=O)n1ccn(S(=O)(=O)c2ccc(C)cc2)c1=O`, the cytotoxicity at 70.5 h is -14.8%. The value for `Cc1ccc(S(=O)(=O)n2ccn(C(=O)COc3ccccc3)c2=O)cc1` was -9.68%; that for `CCOC(=O)CNC(=O)NCc1cccn1Cc1ccccc1F` was -2.5%. The value for `CCN1CCN(C(=O)CCn2cccc2)CC1` was -12.8%; that for `COCCCNC(=O)Nc1ncc(-c2cccc(OC)c2)n1CCOC` was -17.4%; that for `COCCn1c(-c2cccc(OC)c2)cnc1NC(=O)NCC(C)C` was -18.3%.

For `Cc1ccc2snc(C(=O)N3CCN(C(=O)NCCC(C)C)CC3)c2c1`, the cytotoxicity at 70.5 h was -6.08%. In the case of `COCCNC(=O)N1CCN(C(=O)c2nsc3ccc(C)cc23)CC1` it was -17.5%; in that of `CN1CCN(S(=O)(=O)c2cccc(F)c2)c2ccccc21`, 11.9%; in that of `COC(=O)c1cccc(C(=O)NCc2ccc(C)o2)n1`, -18.5%. In the case of `CCN(CC)c1nc2ccsc2c(=O)n1CCC(=O)NCc1ccco1` it was 12.3%; in that of `COc1ccccc1NC(=O)N1CCCC1c1ccco1` (configuration not stated), -0.874%; in that of `Cc1cc(=O)n2nc(CNc3cc(Cl)ccc3C)nc2[nH]1`, -9.92%.

Take `CCC(=O)NC(c1cccnc1)c1cc(C)ccc1C` (configuration not stated): the cytotoxicity at 70.5 h was -12.3%. Regarding `Cc1ccccc1NC(=O)Nc1c[nH]c(=O)[nH]c1=O`, the cytotoxicity at 70.5 h is -9.84%. Consider `CC1CCN(c2ccc(NC(=O)CCn3cccn3)cc2)CC1`, for which the cytotoxicity at 70.5 h was -9.93%. Take `COc1ccc(NC(=O)c2cnc(N3CCN(C)CC3)nc2C)cc1`: the cytotoxicity at 70.5 h is -6.31%.

Take `CCC1CN(CC(=O)NCCN2CCCCCC2)c2ccccc2S1` (configuration not stated): the cytotoxicity at 70.5 h was -1.59%.

Regarding `CCC1CN(CC(=O)NCCN2CCCC2)c2ccccc2S1` (configuration not stated), the cytotoxicity at 70.5 h is -2.98%.

In the case of `COc1cccc(CN2CCCCCC2c2cccc(F)c2)c1O` (configuration not stated), the cytotoxicity at 70.5 h was -1.29%.

With `Cc1nn(C)c2c(=O)n(CC(=O)NCCN3CCCCCC3)ccc12`, the cytotoxicity at 70.5 h is -4.19%. As for `O=C(Cn1ccc2sccc2c1=O)NC1CCCCC1`, the cytotoxicity at 70.5 h is -9.58%. Consider `CCCNC(=O)CCC(=O)n1nc(C)c2ccccc21`, for which the cytotoxicity at 70.5 h came out at 1.02%. `CCCNC(=O)C1CCCN(c2ccc3nncn3n2)C1` (configuration not stated): the cytotoxicity at 70.5 h was -4.72%. In the case of `CCN(CC)CCNC(=O)c1ccc(-n2ccc3ccccc32)s1` it was 1.6%. In the case of `O=C(NCCCN1CCCC1=O)c1ccc(-n2ccc3ccccc32)s1` it was 1.6%; in that of `CCOc1nc2cnccc2n(CC(=O)NCCc2ccccc2)c1=O`, 28.7%. As to `COc1ccc(NC(=O)c2nc3ccccc3n(C)c2=O)cc1OC`, the cytotoxicity at 70.5 h was 29.1%. In the case of `COc1cc(NC(=O)c2nc3ccccc3n(C)c2=O)cc(OC)c1` it was -14.2%. In the case of `COc1ccc(C2CCCCCN2Cc2cn(C)nc2C)cc1` (configuration not stated) it was -3.41%; in that of `Cc1nn(C)cc1CN1CCCCCC1c1ccccc1Cl` (configuration not stated), 17.7%. The value for `O=C(C1CCN(S(=O)(=O)N2CCCC2)CC1)N1CCC2(CC1)OCCO2` was -7.18%; that for `CCOC(=O)C(C)NC(=O)N1CCN(c2nc3ccccc3n2C)CC1` (configuration not stated) was -2.33%.

As to `CCS(=O)(=O)N1CCc2ccc(NC(=O)NC(C)(C)C)cc21`, the cytotoxicity at 70.5 h was -13.6%. As to `CCS(=O)(=O)N1CCc2ccc(NC(=O)Nc3cccc(F)c3)cc21`, the cytotoxicity at 70.5 h is 33%.

Regarding `CCn1nc(C)c2ccn(CC(=O)NC(C)C)c(=O)c21`, the cytotoxicity at 70.5 h was -2.74%. The value for `COCCN1CC2(CCN(Cc3ccco3)CC2)c2ccccc21` was 4.26%; that for `COCC(=O)NCC1Cn2nnc(-c3ccoc3)c2CO1` (configuration not stated) was -6.95%. In the case of `COc1ccc(C(=O)N2CCO[C@H]3[C@@H](OCC4CC4)CC[C@@H]32)cc1F` it was -2.05%. With `CS(=O)(=O)N1C[C@@H](C(=O)Nc2cnccn2)C[C@H]2OCC[C@H]21`, the cytotoxicity at 70.5 h was -7.68%.

`CCN(CC)C(=O)c1nc2c(s1)CCN(C(=O)CCC(=O)OC)CC2`: the cytotoxicity at 70.5 h is 3.92%. With `COC(=O)CCC(=O)N1CCc2nc(C(=O)N3CCCCC3)sc2CC1`, the cytotoxicity at 70.5 h was -1.33%. In the case of `CCCS(=O)(=O)N1CCc2nc(N3CCOCC3)nc(N(C)C)c2C1`, the cytotoxicity at 70.5 h worked out at 26.5%. In the case of `O=C(CC1CC1)N1CCCn2c(nnc2Cn2cccc2)C1` it was -4.38%. In the case of `COc1cc(N2C[C@H]3CN(CCN4CCCC4)C(=O)[C@H]3C2)ncn1`, the cytotoxicity at 70.5 h was -7.36%. The value for `O=C(Nc1cnccn1)[C@H]1C[C@H]2OCC[C@H]2N(c2ncc(F)cn2)C1` was -11.1%; that for `CCn1cc2c(n1)C(COCC1CC1)CN(C(=O)c1cc(C)on1)C2` (configuration not stated) was -10.4%; that for `O=C([C@H]1COC[C@H]2CN(CC3CCC3)C[C@H]21)N1CCOCC1` was -6.01%. In the case of `O=C([C@@H]1COC[C@H]2CN(CC3CCCC3)C[C@H]21)N1CCOCC1` it was -7.37%. The value for `COc1ccc(C(=O)N2CCO[C@H]3[C@H](OCC4CC4)CC[C@@H]32)cc1F` was -12.7%; that for `O=C(Cc1cccs1)NCC1Cn2nnc(-c3ccoc3)c2CO1` (configuration not stated) was -5.7%; that for `CCS(=O)(=O)N1CCc2nc(N3CCOCC3)nc(N(C)C)c2CC1` was -7.6%. `CCOCC1CC2(CCN(C(=O)CC3=CCCCC3)CC2)CO1` (configuration not stated): the cytotoxicity at 70.5 h turned out to be 1.88%.

`CC(=O)NCC(=O)N1Cc2cc(C#N)ccc2C1c1cnco1` (configuration not stated): the cytotoxicity at 70.5 h worked out at 25.2%. For the compound `COc1ncnc2c1CCN(C(=O)Cc1cccc(F)c1)CC2`, the cytotoxicity at 70.5 h was -3.34%. As for `N#Cc1ccc2c(c1)CN(C(=O)C1CC=CC1)C2c1cnco1` (configuration not stated), the cytotoxicity at 70.5 h was -6.37%. In the case of `Cc1cnc(N2CCC3(CC2)CCN(c2cncnc2)C3=O)nc1` it was 8.5%; in that of `CCN(C)C(=O)c1cc(-c2ccn(C(C)C)n2)n2ccccc12`, -3.51%; in that of `O=C(NCc1cccs1)c1nc2c(o1)CN(c1ncccn1)C2`, -6.55%. The value for `O=C(c1cnccn1)N1CCC2(CC1)C(=O)NCC2c1ccccc1` (configuration not stated) was -6.72%. Consider `CN(C)CCNC(=O)c1nc2c(o1)CN(c1ncccn1)C2`, for which the cytotoxicity at 70.5 h is -3.63%. For the compound `Cc1ccc(N2CCC3(CCC(=O)N3)CC2)nn1`, the cytotoxicity at 70.5 h was -10%.

As to `CN1C(=O)CC2(CCN(S(=O)(=O)C3CC3)CC2)c2ccccc21`, the cytotoxicity at 70.5 h worked out at 7.41%.

Consider `COCC1CN(C(=O)Cc2ccccn2)Cc2ncn(C)c21` (configuration not stated), for which the cytotoxicity at 70.5 h is -2.47%. In the case of `COCC(=O)N1CCC2(CC1)NC(=O)c1ccccc12` it was 31.8%. The value for `CCCN(CC(=O)N1CCNCC1)C(=O)c1cccc(Cl)c1` was -15.8%; that for `CC(C)OCCCN(CC(=O)N1CCNCC1)C(=O)c1ccc(F)cc1` was 19.8%; that for `CC[C@H]1N(CC2CCOCC2)CCC[C@]12CCC(=O)N2` was -3.56%.

Turning to `Cc1noc(C)c1CN1CCC2(CC1)CC(Oc1cccnc1)CO2` (configuration not stated), the cytotoxicity at 70.5 h was 1.43%. As for `Cc1nnc(N2C[C@@H]3CCCO[C@@H]3[C@H](N3CCCC3=O)C2)s1`, the cytotoxicity at 70.5 h was -9.55%.

In the case of `O=C(C1CCCO1)N1CCCn2c(nnc2Cn2ccnc2)C1` (configuration not stated), the cytotoxicity at 70.5 h is -7.67%. For the compound `Cc1ccc(CN2CCC3(CCC3NS(=O)(=O)c3ccccc3)CC2)o1` (configuration not stated), the cytotoxicity at 70.5 h stood at 8.23%. In the case of `N#Cc1ccc(N2CCC3(CC2)COCCN3Cc2cccnc2)cc1` it was -4.74%; in that of `O=C(NC1CCCC1)N1CC[C@H]2[C@H]1CCN2c1nncs1`, 36.5%. On to `COc1ccccc1OCC(=O)N1C[C@@H]2CN(C)CCO[C@@H]2C1`, for which the cytotoxicity at 70.5 h worked out at 32.3%. In the case of `COCCN1CCO[C@@H]2CN(C(=O)COc3ccc(C)cc3)C[C@@H]2C1` it was -8.74%.

Regarding `Cc1ccc(CN2CC[C@@H](O)[C@@H]2Cc2ccccc2)o1`, the cytotoxicity at 70.5 h turned out to be 34%. Consider `Cn1cncc1CNC1CC2(CCN(S(C)(=O)=O)CC2)c2ccccc21` (configuration not stated), for which the cytotoxicity at 70.5 h was -2.27%. The value for `O=C(c1cccnc1)N1C[C@@H](c2ccccc2)[C@@]2(CCNC2=O)C1` was 7.29%; that for `CCN1CCC2(CC1)CC(NC(=O)c1ccnnc1)c1ccccc12` (configuration not stated) was 7.06%. `CO[C@@H]1CCN(Cc2ccc(C)o2)[C@H]1Cc1ccccc1`: the cytotoxicity at 70.5 h was -1.2%. In the case of `Cc1cc(CN2C[C@@H](C)[C@@]3(CCN(C)C3=O)C2)oc1C` it was -5.99%; in that of `COc1ncccc1CN1CCC2(CCCN2S(C)(=O)=O)CC1`, -7.14%; in that of `COc1ncccc1CN1CCC2(CC1)COCCN2C`, -8.7%. In the case of `Cc1noc(C)c1CN1CCC2(CC1)CC(Oc1cccnc1)C2` it was -9.29%. In the case of `COCCN1CCO[C@@H]2CN(Cc3cc(OC)cc(OC)c3)C[C@@H]2C1`, the cytotoxicity at 70.5 h worked out at 36.9%. In the case of `CN1CCN(Cc2ccncc2)C(=O)C12CCN(c1nccs1)CC2` it was -2.86%; in that of `Cc1cnc(N2CCN3C[C@H](OCc4cccc(C)n4)C[C@H]3C2)nc1`, 0.481%; in that of `COCCN1CCO[C@@H]2CN(Cc3ccccn3)C[C@@H]2C1`, 2.26%. For the compound `N#Cc1ccc(N2CC3(CCN(c4nccs4)C3)C2)nc1`, the cytotoxicity at 70.5 h stood at 5.37%.

For the origin of these results see ChEMBL document CHEMBL3507680, “University of Dundee, Gates Library screen for HepG2 cell viability”.
